Read-outs that look alike come from different tables or passages of the source.
Columns and labels:
[1] = logP (HPLC-MS); format: physicochemical
[2] = tested on: Phaedon cochleariae; experiment: Phaedon test (PHAECO spray treatment); format: in vivo; settings: Chinese cabbage leaf discs, after 7 days; for pest or weed control at 100 g/ha: Phaedon cochleariae, foliar, 168 h, read-out: efficacy in %
Method: Phaedon Test ([…] Spray Treatment) Solvent: 78.0 parts by weight of acetone • • 1.5 parts by weight of dimethylformamide Emulsifier: 0.5 part by weight of alkylaryl polyglycol ether To produce an appropriate active ingredient formulation, 1 part by weight of active ingredient is mixed with the stated amounts of solvent and emulsifier, and the concentrate is diluted with emulsifier-containing water to the desired concentration. Leaf discs of Chinese cabbage (Brassica pekinensis) are sprayed with an active ingredient formulation of the desired concentration and, after drying, populated with larvae of the mustard beetle (Phaedon cochleariae). After 7 days, the efficacy in % is determined. 100% means that all of the beetle larvae have been killed; 0% means that none of the beetle larvae have been killed.

[3] = tested on: Spodoptera frugiperda; experiment: Spodoptera frugiperda test (SPODFR spray treatment); format: in vivo; settings: maize leaf discs, after 7 days
Method: Spodoptera frugiperda Test (SPODFR Spray Treatment) Solvent: 78.0 parts by weight of acetone • • 1.5 parts by weight of dimethylformamide To produce an appropriate active ingredient formulation, 1 part by weight of active ingredient is mixed with the stated amounts of solvent and emulsifier, and the concentrate is diluted with emulsifier-containing water to the desired concentration. Leaf discs of maize (Zea mays) are sprayed with an active ingredient formulation of the desired concentration and, after drying, populated with caterpillars of the armyworm (Spodoptera frugiperda). After 7 days, the efficacy in % is determined 100% means that all of the caterpillars have been killed; 0% means that none of the caterpillars have been killed.

[4] = tested on: Tetranychus urticae; experiment: Tetranychus test, OP-resistant (TETRUR spray treatment); format: in vivo; settings: application rate 100 g/ha; bean leaf discs; after 6 days
Method: Tetranychus Test, OP-Resistant (TETRUR Spray Treatment)
Solvent: 78.0 parts by weight of acetone • • 1.5 parts by weight of dimethylformamide
Emulgator: 0.5 part by weight of alkylaryl polyglycol ether
To produce an appropriate active ingredient formulation, 1 part by weight of active ingredient is mixed with the stated amounts of solvent and emulsifier, and the concentrate is diluted with emulsifier-containing water to the desired concentration.
Discs of bean leaves (Phaseolus vulgaris) infested by all stages of the red spider mite (Tetranychus urticae) are sprayed with an active ingredient formulation of the desired concentration.
After 6 days, the efficacy in % is determined. 100% means that all of the spider mites have been killed; 0% means that none of the spider mites have been killed.

[5] = HPLC, reversed-phase column (C18), acidic range pH 2.7, acetonitrile (0.1% formic acid)/water gradient, 43° C., calibration with unbranched alkan-2-ones, read-out: log p
[6] = HPLC, reversed-phase column (C18), acidic range pH 2.7, acetonitrile (0.1% formic acid)/water gradient, 43° C., calibration with unbranched alkan-2-ones
[7] = HPLC, reversed-phase column (C18), 43° C., acidic range pH 2.7, EEC directive 79/831 Annex V.A8, two values = both regioisomers (G = N)

Row | log p [1, 6] | log p [1, 7] | Compound | efficacy in % ([2]; application rate 100 g/ha) [%] | efficacy in % ([3]; application rate 100 g/ha) [%] | also measured
1 |  |  | CCn1c(C(=O)NC(c2cccc(C(F)(F)F)c2)C(F)(F)F)cc2cc(CNC(C)=O)c(Cl)cc21 (stereo not shown) [Compound 26, 5-(acetamidomethyl)-6-chloro-1-ethyl-N-{2,2,2-trifluoro-1-[3-(trifluoromethyl)phenyl]ethyl}-1H-indole-2-carboxamide] |  |  | chromatographic logP [1, 5]: 3.77; chromatographic logP ([1]; HPLC-MS): 3.77; pest or weed control at 100 g/ha ([2]; application rate 100 g/ha): 100%
2 | 3.78 |  | CCn1c(C(=O)NC(c2cccc(C(F)(F)F)c2)C(F)(F)F)cc2cc(C(=O)NC(C)CC#N)c(Cl)cc21 (stereo not shown) [Compound 269] | 100 |  | 
3 | 4.37 |  | CCn1c(C(=O)NC(c2cccc(C(F)(F)F)c2)C(F)(F)F)cc2cc(CNC(=O)C3CC3)c(C(F)(F)F)cc21 (stereo not shown) [Compound 23] | 100 |  | 
4 |  | 4.02 | CCn1c(C(=O)NC(c2cc(F)cc(C(F)(F)F)c2)C(F)(F)F)cc2cc(C(=O)NC3(C#N)CC3)c(C)cc21 (stereo not shown) [Compound 331] |  |  | 
5 | 3.99 |  | CCOC(=O)C1(NC(=O)c2cc3cc(C(=O)NC(c4cccc(C(F)(F)F)c4)C(F)(F)F)n(CC)c3cc2Cl)CC1 (stereo not shown) [Compound 34] | 100 | 83 | 
6 |  | 4.17 | N#CC1(NC(=O)c2cc3cc(C(=O)NC(c4cccc(C(F)(F)F)c4)C(F)(F)F)n(COCc4ccccc4)c3cc2Cl)CC1 (stereo not shown) [Compound 286] | 100 |  | efficacy in % [4]: 100%
7 |  | 4.16 | CCn1c(C(=O)NC(c2cccc(C(F)(F)F)c2)C(F)(F)F)cc2cc(C(=O)NC(C#N)(COC)COC)c(Cl)cc21 (stereo not shown) [Compound 325] | 100 |  | 
8 |  | 3.52 | CCn1c(C(=O)NC(c2ccc(F)c(F)c2)C(F)(F)F)cc2cc(C(=O)NC3CC3)c(Cl)cc21 (stereo not shown) [Compound 329] |  |  | 
9 | 3.91 |  | CCNC(=O)c1cc2cc(C(=O)NC(c3ccc(F)c(C(F)(F)F)c3)C(F)(F)F)n(CC)c2cc1Cl (stereo not shown) [Compound 17] | 100 | 100 | 
10 |  | 4.13 | CC(C)Cn1c(C(=O)NC(c2cccc(C(F)(F)F)c2)C(F)(F)F)cc2cc(C(=O)NC3(C#N)CC3)c(Cl)cc21 (stereo not shown) [Compound 299] | 100 | 100 | 
11 |  | 4.29 | CCn1c(C(=O)NC(c2cc(Cl)c(F)c(Cl)c2)C(F)(F)F)cc2cc(C(=O)NC3CC3)c(Cl)cc21 (stereo not shown) [Compound 327] |  |  | 
12 |  | 4.74 | C=CCN(C(=O)c1cc2nc(C(=O)NC(c3cccc(C(F)(F)F)c3)C(F)(F)F)n(CC=C)c2cc1Cl)C1CC1 (stereo not shown) [Compound 309] |  |  | efficacy in % ([2]; application rate 500 g/ha): 83%; efficacy in % ([3]; application rate 500 g/ha): 100%
13 |  | 2.76 | CCn1c(C(=O)NC(c2ccc(F)c(F)c2)C(F)(F)F)cc2cc(C(=O)NC(C)C[S+](C)[O-])c(C)cc21 (stereo not shown) [Compound 321] |  |  | 
14 | 3.55 |  | C#CCn1c(C(=O)NC(c2cccc(C(F)(F)F)c2)C(F)(F)F)nc2cc(C(=O)NC3CC3)c(Cl)cc21 (stereo not shown) [Compound 91] | 100 | 100 | 
15 |  | 4.37 | CCn1c(C(=O)NC(c2cccc(C(F)(F)F)c2)C(F)(F)F)cc2cc(C(=O)NC(C#N)c3ccccc3)c(Cl)cc21 (stereo not shown) [Compound 318] | 100 |  | 
16 |  | 3.48 | C=Cn1c(C(=O)NC(c2cccc(C(F)(F)F)c2)C(F)(F)F)cc2cc(C(=O)NC3(C#N)CC3)ccc21 (stereo not shown) [Compound 324] |  |  | 
17 | 4.30 |  | CCn1c(C(=O)NC(c2cccc(C(F)(F)F)c2)C(F)(F)F)cc2cc(C(=O)NC3(C(F)(F)F)CC3)c(Cl)cc21 (stereo not shown) [Compound 267] | 100 | 100 | 
18 | 3.55 |  | Cn1c(C(=O)NC(c2cccc(C(F)(F)F)c2)C(F)(F)F)cc2cc(C(=O)NC3(C#N)CC3)c(Cl)cc21 (stereo not shown) [Compound 44] | 100 | 100 | 
19 |  | 3.81 | CCn1c(C(=O)NC(c2ccc3c(c2)OC(F)(F)O3)C(F)(F)F)cc2cc(C(=O)NC3CC3)c(C)cc21 (stereo not shown) [Compound 307] | 100 | 100 | 

Row | log p [1, 6] | log p [1, 7] | Compound | efficacy in % ([2]; application rate 100 g/ha) [%] | efficacy in % ([3]; application rate 100 g/ha) [%] | also measured
20 | 4.41 |  | CCn1c(C(=O)NC(c2cccc(C(F)(F)F)c2)C(F)(F)F)cc2cc(C(=O)NC3(C)CC3C)c(Cl)cc21 (stereo not shown) [Compound 266] | 100 |  | 
21 |  |  | CCn1c(C(=O)NC(c2cccc(C(F)(F)F)c2)C(F)(F)F)c(Cl)c2cc(C(=O)NC3(C#N)CC3)c(Cl)cc21 (stereo not shown) [Compound 271, 3,6-dichloro-N^5-(1-cyanocyclopropyl)-1-ethyl-N^2-{2,2,2-trifluoro-1-[3-(trifluoromethyl)phenyl]ethyl}-1H-indole-2,5-dicarboxamide] |  |  | chromatographic logP [1, 5]: 3.95; chromatographic logP ([1]; HPLC-MS): 3.95; pest or weed control at 100 g/ha ([2]; application rate 100 g/ha): 100%
22 | 4.19 |  | CCOC1(NC(=O)c2cc3cc(C(=O)NC(c4cccc(C(F)(F)F)c4)C(F)(F)F)n(CC)c3cc2Cl)CC1 (stereo not shown) [Compound 31] | 100 | 100 | 
23 | 4.20 |  | C#CC1(NC(=O)c2cc3cc(C(=O)NC(c4cccc(C(F)(F)F)c4)C(F)(F)F)n(CC)c3cc2Cl)CCC1 (stereo not shown) [Compound 33] | 100 |  | 
24 | 3.64 |  | CCn1c(C(=O)NC(c2cccc(C(F)(F)F)c2)C(F)(F)F)cc2cc(C(=O)NCC#N)c(Cl)cc21 (stereo not shown) [Compound 21] | 100 |  | 
25 |  |  | O=C(NC1CC1)c1cc2nc(C(=O)NC(c3cccc(C(F)(F)F)c3)C(F)(F)F)n(CC3CC3)c2cc1Cl (stereo not shown) [Compound 322] | 100 | 100 | 
26 | 4.19 |  | CCn1c(C(=O)NC(c2cccc(C(F)(F)F)c2)C(F)(F)F)cc2cc(CNC(=O)C3CC3)c(Cl)cc21 (stereo not shown) [Compound 24] | 100 | 100 | 
27 | 4.37 |  | CCn1c(C(=O)NC(c2cccc(C(F)(F)F)c2)C(F)(F)F)cc2cc(C(=O)NC(C#N)C(C)C)c(Cl)cc21 (stereo not shown) [Compound 270] | 100 |  | 
28 | 4.45 |  | CCn1c(C(=O)NC(c2cccc(C(F)(F)F)c2)C(F)(F)F)cc2cc(C(=O)NC3(CC)CC3)c(Cl)cc21 (stereo not shown) [Compound 30] | 100 | 83 | 
29 | 4.45 |  | CCn1c(C(=O)NC(c2cccc(C(F)(F)F)c2)C(F)(F)F)cc2cc(C(=O)NC3(C4CC4)CC3)c(Cl)cc21 (stereo not shown) [Compound 29] | 100 | 83 | 
30 | 4.41 |  | CCn1c(C(=O)NC(c2cccc(C(F)(F)F)c2)C(F)(F)F)cc2cc(C(=O)NC(C#N)(CC)CC)c(Cl)cc21 (stereo not shown) [Compound 264] | 100 |  | 
31 | 3.33 |  | Cn1c(C(=O)NC(c2cccc(Cl)c2)C(F)(F)F)cc2cc(C(=O)NC3CC3)c(Cl)cc21 (stereo not shown) [Compound 45] | 100 | 100 | 
32 |  | 3.36 | COC(=O)Cn1c(C(=O)NC(c2cccc(C(F)(F)F)c2)C(F)(F)F)cc2cc(C(=O)NC3(C#N)CC3)c(Cl)cc21 (stereo not shown) [Compound 326] | 100 |  | 
33 |  | 3.76 | CCn1c(C(=O)NC(c2ccc(F)c(C(F)(F)F)c2)C(F)(F)F)nc2cc(C(=O)NC3CC3)c(Br)cc21 (stereo not shown) [Compound 332] |  |  | 
34 |  | 4.08 | CCn1c(C(=O)NC(c2cccc(C(F)(F)F)c2)C(F)(F)F)cc2cc(C(=O)NC3(C#N)CC3)c(C(C)C)cc21 (stereo not shown) [Compound 319] | 100 | 100 | 
35 | 3.4 |  | Cn1c(C(=O)NC(c2cccc(C(F)(F)F)c2)C(F)(F)F)nc2cc(C(=O)NC3CC3)c(Cl)cc21 (stereo not shown) [Compound 1] |  |  | efficacy in % ([2]; application rate 500 g/ha): 100%; efficacy in % ([3]; application rate 500 g/ha): 100%
36 | 4.06 |  | CCC(=O)NCc1cc2cc(C(=O)NC(c3cccc(C(F)(F)F)c3)C(F)(F)F)n(CC)c2cc1Cl (stereo not shown) [Compound 25] | 100 | 100 | 
37 |  | 4.03 | CCn1c(C(=O)NC(c2ccc(F)c(C(F)(F)F)c2)C(F)(F)F)cc2cc(C(=O)NC(CF)CF)c(C)cc21 (stereo not shown) [Compound 306] | 100 | 83 | 
38 | 3.49 |  | Cc1cc2c(cc1C(=O)NC1(C#N)CC1)cc(C(=O)NC(c1cccc(C(F)(F)F)c1)C(F)(F)F)n2C (stereo not shown) [Compound 196] | 100 | 100 | 
